Reference: US7732458B2 (priority 2004, dated 2010)
≈ marks a conversion by molar mass, not a printed value. Where two headings read alike, the source gives them in different places.

Assays:
MT4 cells = experiment: Toxicity of compounds on MT4 cells (MTT method); assay type: cell-based; details: 6 days
Experimental: MT4 cells are cultured in 96-well plates (2×10^5 cells/ml, 0.1 ml/well) and the verifying compounds are added and compared against the positive control sample AZT, and the normal cell control group at the same time. Comparisons against DMSO control group and MT4 cell control group are also performed. The culture is maintained at 37° C., 5 percent CO2 for 6 days. The cell activities are tested by the MTT method to determine TC50.

HIV-1 III B = experiment: Inhibition of HIV-induced MT4 cell pathological effects (CPE); assay type: cell-based; details: for IC50: 50 percent effective concentration, CPE in MT4 cells, 72 hours
Experimental: HIV-1 III B comes from the USA; MT4 cell line comes from Japan.
To determine viral toxicity, HIV are diluted 10 fold in 8 serial [Chinese version is unclear, and this is an educated guess] and MT4 cell pathological effects are then observed in the culture solution of RPMI-1640. Calculated TCID50 is 10-6. The normal cell control group and virus control group are also performed. The samples with five concentrations per group that are diluted by 2 times and 100 μl AZT are added in cell or virus cultures. All concentrations of samples are performed in three repeated wells. The experiments are maintained at 37° C., 5 percent CO2 for 72 hours. Then the cell pathological effects (CPE) are observed under an inverted microscope. IC50 and selective index SI (TC50/IC50) are calculated in Table 7.

[1] = test system: hepatic toxicity induced by D-galactosamine; experiment: Model of hepatic toxicity induced by D-galactosamine in rats; assay type: in vivo; details: D-galactosamine 800 mg/kg i.p. (Table 4), X ± SD, n = 20
Experimental: 3. The Model of Hepatic Toxicity Induced by D-Galactosamine in Rats […] Animals are maintained with free access to standard rodent pellet food and water ad libitum. All rats are randomly divided into 4 groups. All groups except the control group are treated simultaneously with 800 mg/kg of 50 percent D-galactosamine by intraperitoneal injection to induce acute hepatic toxicity model. The blood samples are obtained 12 hours after the final dose for determining SGPT and TBIL. The animals are killed to measure their liver weight and to perform a pathological examination (Table 4).

HBeAg = assay type: cell-based, hepatitis B virus
HBsAg = assay type: cell-based, hepatitis B virus
cell Hep G2 2.2.15 = experiment: Toxicity to cell Hep G2 2.2.15 (MTT method); assay type: cell-based, human
[2] = test system: liver fibrosis induced by carbon tetrachloride; experiment: Model of liver fibrosis induced by carbon tetrachloride in rats; assay type: in vivo, Wistar male rats; details: chronic carbon tetrachloride 12 weeks, treated one time a day for 8 weeks, X ± SD, n = 20
Experimental: 4. The Model of Liver Fibrosis Induced by Carbon Tetrachloride in Rats
Wistar male rats, weighing 100-150 g are used in the study. Animals are housed in an animal room with a 12 h: 12 h photoperiod and at 22° C. Animals are maintained with free access to standard rodent pellet food and water ad libitum
All Wistar male rats are treated with 0.3 ml/(100 g body weight) of 40 percent carbon tetrachloride (dissolved in peanut oil) by hypodermic injection twice a week for 12 weeks to induce […] hepatic fibrosis model, all in phase IV. Then all rats in hepatic fibrosis are randomly divided into the following groups: normal saline (NS) group, sample group and positive contrast group. The NS group rats are treated with 0.2 ml normal saline by intramuscular injection for 8 weeks, and simultaneously, all the other groups are treated with samples one time a day for 8 weeks. […] After that, all rats are killed, and the right lobes of the livers are fixed in neutral formaldehyde solution for histological examination.

[3] = test system: arrhythmia induced by aconitine; experiment: Arrhythmia induced by aconitine in rats; assay type: in vivo, Wistar rats; details: for preventive effects on arrhythmia induced by aconitine (in words): intravenously injected, aconitine dosage increased, VT/VF postponed
Experimental: The antagonistic effects of the dehydrocavidine species compounds on arrhythmia induced by aconitine
The samples are dissolved in hot normal saline up to the needed concentration. Normal saline serves as the control solution. Propafenone serves as a positive control sample.
Wistar rats of both sexes are randomly grouped and anesthetized by urethane (1.2 g/kg), II lead electrocardiogram is recorded. The groups are administered the following drugs by vena femoralis injection: (1) the compound (5 mg/kg, if possible 2.5 mg/kg), (2) propafenone (7 mg/kg), (3) control solution (2 mg/kg). After 5 minutes, aconitine solution (5 μg/ml) was delivered intravenously at a constant speed of 0.08 ml/min. The volume of aconitine solution is recorded when VP, VT and VF occur, and the electrocardiogram is also recorded. EV50 (VF) values are calculated by regression analysis on the basis of the dosage of aconitine consumed by VF in each experiment.

[4] = test system: acute hepatic toxicity induced by carbon tetrachloride; experiment: Model of acute hepatic toxicity induced by carbon tetrachloride in rats; assay type: in vivo; details: blood 12 hours after final dose, X ± SD, n = 20
Experimental: 2. The Model of Acute Hepatic Toxicity Induced by Carbon Tetrachloride in Rats
Matured SD rats, male or female, weighing 250-350 g are used in the study. Animals are maintained with free access to standard rodent pellet food and water ad libitum.
All rats are randomly divided into 6 groups. All the other groups are treated with 0.5 ml/100 g of 50 percent carbon tetrachloride by hypodermic injection to induce acute hepatic toxicity model, except the control group, and are dosed one time simultaneously. Then all groups will be successively dosed at 4 hours and 8 hours, and the blood samples obtained at 12 hours after the final dose for determining ALT and AST. The animals are killed to measure their liver weight and to perform a pathological examination (Table 3).

[5] = test system: acute liver injury induced by thioacetamide; experiment: Model of acute liver injury induced by thioacetamide in mice; assay type: in vivo, Kunming mice; details: thioacetamide 30 mg/kg, X ± SD, n = 20; for ALT / AST: blood 24 hours after final dose
Experimental: The model of acute liver injury induced by thioacetamide in mice Experimental animals: Kunming mice, male or female, weighing 19-22 g, are used in the study. Animals are housed in an animal room with a natural photoperiod and room temperature (23±2° C.), and maintained with free access to standard rodent pellet food and water ad libitum. […] All mice are randomly divided to 7 groups. […] Then all groups are successively dosed three times at an interval of 3 hours, 6 hours and 9 hours after being infected, and the blood samples were obtained at 24 hours (i.e. the next day) after the final dose. The follow markers and liver weight were measured and also the pathological examination were performed (Table 2).

influenza A1 virus = experiment: Anti-influenza virus experiment in MDCK cells; assay type: cell-based; details: for IC50: 72 h, MDCK cells, 3 days
[6] = normal mice; cited from earlier work
bacteria = details: cited from earlier work
[7] = cited from earlier work
[8] = test system: smooth muscles of the intestines; details: cited from earlier work
central nervous system = details: in vivo; cited from earlier work
gram-positive bacterium = details: in vitro; cited from earlier work

Which “TC50” value (MT4 cells) does the source give for `Cc1cn([C@H]2C[C@H](N=[N+]=[N-])[C@@H](CO)O2)c(=O)[nH]c1=O` [AZT, zidouvding, reference compound] here?
Its value is 500 µg/mL (≈ 1870 µM).

What about the “IC50” value (HIV-1 III B) of the same molecule?
Its value is 0.1 µg/mL (≈ 0.374 µM).

Which results are given for `COc1cc2cc[n+]3cc4c5c(ccc4c(C)c3c2cc1O)OCO5` [dehydroapocavidine]?
ALT [1]: 1027.10 ± 277.38; AST [1]: 345.20 ± 68.29; Liver index (g liver wt./100 g body wt.) [1]: 4.47 ± 0.47 g liver wt./100 g body wt.; Inhibition frequency to HBeAg (%) (HBeAg; concentration 0.1 μmol/ml): 26.5%; Inhibition frequency to HBeAg (%) (HBeAg; concentration 0.2 μmol/ml): 33.5%; Inhibition frequency to HBeAg (%) (HBeAg; concentration 0.4 μmol/ml): 62.1%; TC50 (MT4 cells): 250 µg/mL; Inhibition frequency to HBsAg (%) (HBsAg; concentration 0.1 μmol/ml): 15.7%; Inhibition frequency to HBsAg (%) (HBsAg; concentration 0.2 μmol/ml): 21.3%; Inhibition frequency to HBsAg (%) (HBsAg; concentration 0.4 μmol/ml): 28.6%; Toxicity to cell (cell Hep G2 2.2.15; concentration 0.1 μmol/ml): − (“no obvious toxicity” means cell livability ≧75% using MTT method); Toxicity to cell (cell Hep G2 2.2.15; concentration 0.2 μmol/ml): − (“no obvious toxicity” means cell livability ≧75% using MTT method); Toxicity to cell (cell Hep G2 2.2.15; concentration 0.4 μmol/ml): − (“no obvious toxicity” means cell livability ≧75% using MTT method); inhibitory effects on HIV viruses (in words) (HIV-1 III B): certain inhibitory effects on HIV viruses; IC50 (HIV-1 III B): 6.25 µg/mL; ALT [2]: 973.2 ± 273.5; AST [2]: 1057.1 ± 338.7; Hydroxy-prodine in Liver [2]: 0.175 ± 0.018; preventive effects on arrhythmia induced by aconitine (in words) [3]: certain preventive effects on arrhythmia induced by aconitine; ED50 (10^−6 mol/Kg) ([3]; rats, vena femoralis injection, regression on aconitine dosage consumed by VF): 4.26 10^−6 mol/Kg; ALT [4]: 955.36 ± 327.18; AST [4]: 903.52 ± 256.94; Liver index (g liver wt./100 g body wt.) [5]: 5.14 ± 0.48 g liver wt./100 g body wt.; ALT [5]: 823.26 ± 178.42; AST [5]: 241.13 ± 62.81; inhibitory effects on influenza viruses (in words) (influenza A1 virus): markedly inhibitory effects on influenza viruses

Which results are given for `Nc1ccn([C@@H]2CS[C@H](CO)O2)c(=O)n1` [3TC, reference compound]?
Inhibition frequency to HBeAg (%) (HBeAg; concentration 1.0 μmol/ml): 24.5%; Inhibition frequency to HBsAg (%) (HBsAg; concentration 1.0 μmol/ml): 4.8%

With `NC(=O)c1ncn([C@@H]2O[C@H](CO)[C@@H](O)[C@H]2O)n1` [Ribavirin, reference compound] as the molecule, how does the IC50 (influenza A1 virus) read?
Its IC50 is 3.2 µM.

For `COc1cc2c(cc1OC)-c1c(C)c3ccc4c(c3c[n+]1CC2)OCO4` [dehydrocavidine], which ALT [1] is on record?
Its ALT is 846.28 ± 172.54.

And the AST [1]?
The AST was 241.20 ± 65.53.

What about the “Liver index (g liver wt./100 g body wt.)” value [1] of the same molecule?
Its value is 5.10 ± 0.36 g liver wt./100 g body wt.

And the “Inhibition frequency to HBeAg (%)” value (HBeAg; concentration 0.1 μmol/ml)?
The value was 20.5%.

What about the “Inhibition frequency to HBeAg (%)” value (HBeAg; concentration 0.2 μmol/ml) of the same molecule?
Its value is 21.6%.

And the “Inhibition frequency to HBeAg (%)” value (HBeAg; concentration 0.4 μmol/ml)?
The value was 57.2%.

What about the “effects on blood sugar levels” value [6] of the same molecule?
The value was “no effects on the blood sugar levels in normal mice”.

What about the “TC50” value (MT4 cells) of the same molecule?
Its value is greater than 1000 µg/mL.

What about the “Inhibition frequency to HBsAg (%)” value (HBsAg; concentration 0.1 μmol/ml) of the same molecule?
The value was 28.4%.

And the “Inhibition frequency to HBsAg (%)” value (HBsAg; concentration 0.2 μmol/ml)?
Its value is 31.4%.

What about the “Inhibition frequency to HBsAg (%)” value (HBsAg; concentration 0.4 μmol/ml) of the same molecule?
Its value is 34.6%.

And the Toxicity to cell (cell Hep G2 2.2.15; concentration 0.1 μmol/ml)?
The Toxicity to cell was “− (“no obvious toxicity” means cell livability ≧75% using MTT method)”.

What about the Toxicity to cell (cell Hep G2 2.2.15; concentration 0.2 μmol/ml) of the same molecule?
The Toxicity to cell was “− (“no obvious toxicity” means cell livability ≧75% using MTT method)”.

And the Toxicity to cell (cell Hep G2 2.2.15; concentration 0.4 μmol/ml)?
The Toxicity to cell was “− (“no obvious toxicity” means cell livability ≧75% using MTT method)”.

And the “inhibitory effects on HIV viruses (in words)” value (HIV-1 III B)?
The value was “certain inhibitory effects on HIV viruses”.

What about the IC50 (HIV-1 III B; Human immunodeficiency virus 1, read-out: IC50) of the same molecule?
The IC50 was 12.5 µg/mL.

What about the “antibacterial effect in vitro” value (bacteria) of the same molecule?
Its value is “antibacterial effect in vitro”.

What about the “production of glycogen in vivo” value [7] of the same molecule?
The value was “effect on increasing the production of glycogen in vivo”.

And the ALT [2]?
The ALT was 1113.4 ± 247.6.

And the AST [2]?
Its AST is 987.3 ± 237.9.

What about the “Hydroxy-prodine in Liver” value [2] of the same molecule?
The value was 0.162 ± 0.013.

What about the “effects on the smooth muscles of the intestines” value [8] of the same molecule?
Its value is “antispasm effects on the smooth muscles of the intestines”.

And the ED50 ([3]; Rattus norvegicus, read-out: ED50 (10^−6 mol/Kg))?
The ED50 was 7.33 µmol/kg.

What about the “preventive effects on arrhythmia induced by aconitine (in words)” value [3] of the same molecule?
Its value is “certain preventive effects on arrhythmia induced by aconitine”.

What about the “effects on the central nervous system” value (central nervous system) of the same molecule?
The value was “sedative effects on the central nervous system”.

And the ALT [4]?
The ALT was 774.30 ± 217.11.

What about the AST [4] of the same molecule?
Its AST is 1116.54 ± 348.27.

What about the “Liver index (g liver wt./100 g body wt.)” value [5] of the same molecule?
The value was 5.36 ± 0.54 g liver wt./100 g body wt.

And the ALT [5]?
The ALT was 873.50 ± 251.82.

What about the AST [5] of the same molecule?
The AST was 237.10 ± 73.27.

What about the “inhibitory effects on influenza viruses (in words)” value (influenza A1 virus) of the same molecule?
Its value is “markedly inhibitory effects on influenza viruses”.

What about the IC50 (influenza A1 virus) of the same molecule?
Its IC50 is 7.4 µM.

And the “inhibitory effect on gram-positive bacterium” value (gram-positive bacterium)?
Its value is “certain inhibitory effect on gram-positive bacterium”.
